Measurements published in the supplement of paper PMC4862054.

Assays:
Conditions in all cases: incubation time: 72 h
[1] = test system: CAL-51; experiment: normalised response (% of control), CellTiter-Glo; higher = more viable cells (100 = DMSO, 0 = benzethonium chloride kill control)
Description: (§1)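 DSRT, 72 h incubation, CellTox Green / CellTiter-Glo readout. Signal is normalised to DMSO and benzethonium chloride controls. Value is the normalised response at the highest dose.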

[2] = test system: CAL-120; experiment: as above
Description: as §1

[3] = test system: Hs578T; experiment: as above
Description: as §1

[4] = test system: HCC1599; experiment: as above
Description: as §1

[5] = test system: BT-549; experiment: as above
Description: as §1

[6] = test system: BT-474; experiment: as above
Description: as §1

[7] = test system: DU-4475; experiment: as above
Description: as §1

[8] = test system: MCF-10A; experiment: as above
Description: as §1

[9] = test system: MDA-MB-468; experiment: as above
Description: as §1

[10] = test system: MDA-MB-436; experiment: as above
Description: as §1

[11] = test system: SK-BR-3; experiment: as above
Description: as §1

[12] = test system: MFM-223; experiment: as above
Description: as §1

[13] = test system: HCC1937; experiment: as above
Description: as §1

[14] = test system: HDQ-P1; experiment: as above
Description: as §1

[15] = test system: CAL-148; experiment: as above
Description: as §1

[16] = test system: MDA-MB-453; experiment: as above
Description: as §1

[17] = test system: HCC1143; experiment: as above
Description: as §1

[18] = test system: MDA-MB-231; experiment: as above
Description: as §1

[19] = test system: CAL-85-1; experiment: as above
Description: as §1

[20] = test system: CAL-51; experiment: normalised response (% of control), CellTox Green; higher = less cell death (100 = DMSO, 0 = benzethonium chloride kill control)
Summary of the method: (§2)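 Values are normalised signals, each belonging to one concentration of the series. Breast cancer cells (20 µl suspension) were seeded into 384-well plates with compound at 5 concentrations in 10-fold steps over a compound-specific 10,000-fold range and incubated 72 h. Readouts were CellTox Green fluorescence (485/520 nm), then CellTiter-Glo luminescence after 10 min at room temperature, with each plate set to 0.1 % DMSO as 100 and a positive kill control as 0.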

[21] = test system: CAL-120; experiment: as above
Summary of the method: as §2

[22] = test system: Hs578T; experiment: as above
Summary of the method: as §2

[23] = test system: HCC1599; experiment: as above
Summary of the method: as §2

[24] = test system: BT-549; experiment: as above
Summary of the method: as §2

[25] = test system: BT-474; experiment: as above
Summary of the method: as §2

[26] = test system: DU-4475; experiment: as above
Summary of the method: as §2

[27] = test system: MCF-10A; experiment: as above
Summary of the method: as §2

[28] = test system: MDA-MB-468; experiment: as above
Summary of the method: as §2

[29] = test system: MDA-MB-436; experiment: as above
Summary of the method: as §2

[30] = test system: MFM-223; experiment: as above
Summary of the method: as §2

[31] = test system: HCC1937; experiment: as above
Summary of the method: as §2

[32] = test system: HDQ-P1; experiment: as above
Summary of the method: as §2

[33] = test system: CAL-148; experiment: as above
Summary of the method: as §2

[34] = test system: MDA-MB-453; experiment: as above
Summary of the method: as §2

[35] = test system: HCC1143; experiment: as above
Summary of the method: as §2

[36] = test system: MDA-MB-231; experiment: as above
Summary of the method: as §2

[37] = test system: CAL-85-1; experiment: as above
Summary of the method: as §2

| SMILES | normalised response [1] | normalised response [2] | normalised response [3] | normalised response [4] | normalised response [5] | normalised response [6] | normalised response [7] | normalised response [8] | normalised response [9] | normalised response [10] | normalised response [11] | normalised response [12] | normalised response [13] | normalised response [14] | normalised response [15] | normalised response [16] | normalised response [17] | normalised response [18] | normalised response [19] | normalised response [20] | normalised response [21] | normalised response [22] | normalised response [23] | normalised response [24] | normalised response [25] | normalised response [26] | normalised response [27] | normalised response [28] | normalised response [29] | normalised response [30] | normalised response [31] | normalised response [32] | normalised response [33] | normalised response [34] | normalised response [35] | normalised response [36] | normalised response [37] |
| --- | --- | --- | --- | --- | --- | --- | --- | --- | --- | --- | --- | --- | --- | --- | --- | --- | --- | --- | --- | --- | --- | --- | --- | --- | --- | --- | --- | --- | --- | --- | --- | --- | --- | --- | --- | --- | --- |
| O=C1NC(=O)[C@@H](c2cn3c4c(cccc24)CCC3)[C@@H]1c1c[nH]c2ccccc12 [Tivantinib] (1000 nM) | 38.7% | 49.4% | 24.6% | 47.9% | 35.4% | 60.2% | 71.6% | 58.1% | 29.7% | 43.6% | 16.4% | 60% | 69.4% | 69.9% | 41.5% | 54.3% | 53.5% | 56.2% | 30.6% | 26.8% | 74.4% | 52.5% | 77.5% | 85.3% | 76% | 93.6% | 57.7% | 60.4% | 68.1% | 76.4% | 84.5% | 80.2% | 71.5% | 96.2% | 104% | 11.1% | 20.5% |
| CN(C)CCN1C(=O)c2cccc3cc(N)cc(c23)C1=O [Amonafide] (10000 nM) | 17.7% | 52.3% | 61.7% | 57.2% | 47% | 43.9% | 14.6% | 45% | 43.5% | 38.8% | 31.9% | 69.7% | 55.7% | 53.1% | 25.4% | 77.8% | 52.3% | 39.2% | 47.6% | 23.1% | 101% | 114% | 98% | 122% | 97.8% | 83.8% | 77% | 125% | 63.8% | 100% | 120% | 87% | 32.8% | 112% | 93.5% | 111% | 63.4% |
| Nc1ncnc2c1c(COc1cccc(Cl)c1)nn2C1CCOCC1 (10000 nM) | 101% | 107% | 100% | 98.6% | 88.1% | 86.8% | 101% | 89.3% | 92.3% | 89.3% | 102% | 96.8% | 95.3% | 92.2% | 113% | 88.3% | 98.2% | 89.6% | 90.2% | 109% | 109% | 110% | 106% | 110% | 106% | 103% | 86.3% | 112% | 79.2% | 98.8% | 103% | 109% | 96% | 104% | 104% | 106% | 91.3% |
| NS(=O)(=O)OC[C@@H]1C[C@@H](n2ccc3c(N[C@H]4CCc5ccccc54)ncnc32)C[C@@H]1O [Pevonedistat] (10000 nM) | 10% | 47.8% | 60.1% | 18.2% | 27% | 45.5% | 0.22% | 91.2% | 32.9% | 21% | 30.4% | 49.9% | 60.3% | 72.6% | 123% | 66.2% | 33.9% | 46% | 39.7% | -20.5% | 97% | 91% | 72.6% | 78.3% | 104% | 73.8% | 95.7% | 56.6% | 28.2% | 99% | 107% | 90.5% | 90.7% | 95.5% | 87.8% | 100% | 53.7% |
| CN(C)C[C@@H]1CCn2cc(c3ccccc32)C2=C(C(=O)NC2=O)c2cn(c3ccccc23)CCO1 [Ruboxistaurin] (10000 nM) | 7.88% | 55.2% | 70.6% | 78.9% | 10.1% | 4.02% | 62.1% | 42.6% | 1.42% | 3.33% | -0.11% | 34.9% | 38.5% | 35% | 0.12% | 0.01% | 48.1% | 0.34% | 1.43% | -50.2% | 76.3% | 62.9% | 91.6% | 30.4% | -10.6% | 92.1% | 54.2% | -88% | -6.73% | 73.5% | 33% | 26.2% | 10.5% | 9.28% | 103% | -85% | -82.9% |
